This is an account of results in ChEMBL document CHEMBL5038673, “Novel Tricyclic Heteroaryl Compounds as IRAK4 Inhibitors for Treating Cancer, Autoimmune and Inflammatory Diseases” (ACS Med Chem Lett, 2022).

Molecules are shown by their SMILES.

The target in the test is T1, Interleukin-1 receptor-associated kinase 4 (Homo sapiens, UniProt Q9NWZ3).
T1 sequence (Q9NWZ3 whole entry): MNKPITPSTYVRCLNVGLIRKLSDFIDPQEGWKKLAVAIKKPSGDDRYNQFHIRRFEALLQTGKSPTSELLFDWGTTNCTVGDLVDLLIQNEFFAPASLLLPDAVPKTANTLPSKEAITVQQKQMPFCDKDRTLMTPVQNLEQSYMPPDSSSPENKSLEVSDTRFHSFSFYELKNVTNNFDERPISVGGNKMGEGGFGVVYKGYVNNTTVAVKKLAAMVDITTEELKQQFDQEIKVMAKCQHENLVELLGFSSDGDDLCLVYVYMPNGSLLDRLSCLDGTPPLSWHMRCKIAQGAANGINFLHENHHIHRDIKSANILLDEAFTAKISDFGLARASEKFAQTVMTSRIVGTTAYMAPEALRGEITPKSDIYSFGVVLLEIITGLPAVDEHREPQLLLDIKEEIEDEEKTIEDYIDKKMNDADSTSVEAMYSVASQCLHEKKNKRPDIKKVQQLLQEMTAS
The test is described as follows: Inhibition of IRAK4 (unknown origin) using FL- IPTSPITTTYFFFKKK peptide as substrate in presence of ATP incubated for 60 mins by fluorescence assay.

For `CC(C)Nc1c(C(=O)NCCC2CCNC2)cnc2c1[nH]c1cc(C#N)ccc12` (stereo unspecified), the IC50 is 1.9 nM.

As usually defined, the IC50 is the midpoint of a concentration-inhibition curve.
